Source: US20240158418A1 (C4 Therapeutics, Inc., priority 2021, published 2024)

biological target: T1, EGFR L858R-T790M (Homo sapiens, UniProt P00533, L858R/T790M); test: EGFR degradation, Total EGFR (L858R-specific) HTRF, NCI-H1975; assay type: cell-based; details: Table 9A; NCI-H1975 cells, 6 hours, Total EGFR HTRF; read-out: H1975 EGFR DC50
T1 construct: NCI-H1975 (harboring EGFR heterozygous L858R-T790M mutations); host or cells: NCI-H1975
Summary of the method: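 Cells in RPMI 1640 + 10% FBS treated 6 h at 37°C with compound, 11-point half-log titration from 10 μM top, in duplicate. pY1068 and total EGFR read by HTRF (pan-EGFR antibody for wild-type A431; L858R-specific for mutants); IC50 for phospho inhibition, DC50 for 50% degradation.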

T1 sequence (P00533 25-1210 T790M/L858R): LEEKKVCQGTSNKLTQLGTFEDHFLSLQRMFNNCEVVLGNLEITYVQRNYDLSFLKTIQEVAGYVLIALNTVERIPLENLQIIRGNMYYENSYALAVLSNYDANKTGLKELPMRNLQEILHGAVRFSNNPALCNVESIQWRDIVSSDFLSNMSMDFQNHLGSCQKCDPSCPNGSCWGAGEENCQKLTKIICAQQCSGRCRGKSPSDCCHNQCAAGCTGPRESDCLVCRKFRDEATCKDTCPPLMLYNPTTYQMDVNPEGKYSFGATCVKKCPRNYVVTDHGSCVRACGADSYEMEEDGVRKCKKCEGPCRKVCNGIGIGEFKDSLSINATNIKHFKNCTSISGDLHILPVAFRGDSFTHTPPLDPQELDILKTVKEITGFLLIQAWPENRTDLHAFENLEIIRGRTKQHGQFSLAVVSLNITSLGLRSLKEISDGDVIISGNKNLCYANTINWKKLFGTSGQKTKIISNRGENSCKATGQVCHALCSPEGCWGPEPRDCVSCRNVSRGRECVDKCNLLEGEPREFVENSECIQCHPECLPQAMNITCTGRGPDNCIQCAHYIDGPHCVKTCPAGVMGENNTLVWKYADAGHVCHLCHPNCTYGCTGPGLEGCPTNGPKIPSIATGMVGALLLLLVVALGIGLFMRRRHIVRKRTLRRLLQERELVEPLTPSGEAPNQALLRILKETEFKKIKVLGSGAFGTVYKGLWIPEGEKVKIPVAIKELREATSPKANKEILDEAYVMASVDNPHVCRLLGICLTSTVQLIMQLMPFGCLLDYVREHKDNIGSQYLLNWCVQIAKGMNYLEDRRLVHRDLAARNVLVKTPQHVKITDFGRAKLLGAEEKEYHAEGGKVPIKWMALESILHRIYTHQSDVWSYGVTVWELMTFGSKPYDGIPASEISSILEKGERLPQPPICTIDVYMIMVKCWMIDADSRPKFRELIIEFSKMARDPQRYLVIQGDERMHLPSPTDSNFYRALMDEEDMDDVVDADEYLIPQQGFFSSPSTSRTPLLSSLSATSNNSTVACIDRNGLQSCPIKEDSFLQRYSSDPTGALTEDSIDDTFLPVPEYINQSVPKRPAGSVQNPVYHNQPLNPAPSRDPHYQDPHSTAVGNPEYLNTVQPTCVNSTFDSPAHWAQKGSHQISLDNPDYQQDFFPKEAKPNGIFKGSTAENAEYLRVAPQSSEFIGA

Structure (SMILES)	DC50 [nM]
O=C1CCC(Nc2ccc(C3CCN(CC(=O)N4CCN(c5ccc(-c6cc(F)c7c(c6)C(=O)N(C(C(=O)Nc6nccs6)c6ncn8c6CCC8)C7)cc5)CC4)CC3)cc2F)C(=O)N1 (stereo not shown) [Compound 13, 2-(6,7-dihydro-5H-pyrrolo[1,2-c]imidazol-1-yl)-2-[6-[4-[4-[2-[4-[4-[(2,6-dioxo-3-piperidyl)amino]-3-fluoro-phenyl]-1-piperidyl]acetyl]piperazin-1-yl]phenyl]-4-fluoro-1-oxo-isoindolin-2-yl]-N-thiazol-2-yl-acetamide]	50 to 150
O=C1CCC(Nc2ccc(C3CCN(CC(=O)N4CCN(c5ccc(-c6cc(Cl)c7cn(C(C(=O)Nc8nccs8)c8ncn9c8CCC9)nc7c6Cl)cc5)CC4)CC3)cc2)C(=O)N1 (racemic) [Compound 61, (2RS)-2-[4,7-Dichloro-6-[4-[4-[2-[4-[4-[[(3RS)-2,6-dioxo-3-piperidyl]amino]phenyl]-1-piperidyl]acetyl]piperazin-1-yl]phenyl]indazol-2-yl]-2-(6,7-dihydro-5H-pyrrolo[1,2-c]imidazol-1-yl)-N-thiazol-2-yl-acetamide]	50 to 150
O=C1CCC(Nc2ccc(C3CCN(CC(=O)N4CCN(c5ccc(-c6cc(F)c7cn(C(C(=O)Nc8nccs8)c8ncn9c8CCC9)nc7c6)cn5)CC4)CC3)c(F)c2)C(=O)N1 (stereo not shown) [Compound 64, 2-(6,7-dihydro-5H-pyrrolo[1,2-c]imidazol-1-yl)-2-[6-[6-[4-[2-[4-[4-[(2,6-dioxo-3-piperidyl)amino]-2-fluoro-phenyl]-1-piperidyl]acetyl]piperazin-1-yl]-3-pyridyl]-4-fluoro-indazol-2-yl]-N-thiazol-2-yl-acetamide]	50 to 150
O=C1CCC(Nc2cccc(C3CCN(CC(=O)N4CCN(c5ccc(-c6cc(F)c7c(c6)C(=O)N(C(C(=O)Nc6nccs6)c6ncn8c6CCC8)C7)cc5)CC4)CC3)c2)C(=O)N1 (stereo not shown) [Compound 16, 2-(6,7-dihydro-5H-pyrrolo[1,2-c]imidazol-1-yl)-2-(6-(4-(4-(2-(4-(3-((2,6-dioxopiperidin-3-yl)amino)phenyl)piperidin-1-yl)acetyl)piperazin-1-yl)phenyl)-4-fluoro-1-oxoisoindolin-2-yl)-N-(thiazol-2-yl)acetamide]	50 to 150

same assay, conditions: Table 9B; NCI-H1975 cells, 6 hours, Total EGFR HTRF; read-out: H1975 EGFR DC50

Structure (SMILES)	DC50 [nM]
Cn1nc(N2CCC(=O)NC2=O)c2ccc([C@@H]3CCN(C(=O)CN4CCC5(CC4)CN(c4ccc(-c6cc(F)c7c(c6)C(=O)N(C(C(=O)Nc6nccs6)c6ncn8c6CCC8)C7)cc4)C5)CC3(F)F)cc21 (stereo partly drawn) [Compound 141, 2-(6,7-dihydro-5H-pyrrolo[1,2-c]imidazol-1-yl)-2-[6-[4-[7-[2-[(4S)-4-[3-(2,4-dioxohexahydropyrimidin-1-yl)-1-methyl-indazol-6-yl]-3,3-difluoro-1-piperidyl]-2-oxo-ethyl]-2,7-diazaspiro[3.5]nonan-2-yl]phenyl]-4-fluoro-1-oxo-isoindolin-2-yl]-N-thiazol-2-yl-acetamide]	50 to 150
O=C1CCC(Nc2cc(F)c(N3CCC(O)(CC(=O)N4CC5(C4)CN(c4ccc(-c6cc(F)c7c(c6)C(=O)N(C(C(=O)Nc6nccs6)c6ncn8c6CCC8)C7)cc4)C5)CC3)cc2F)C(=O)N1 (stereo not shown) [Compound 135, 2-(6,7-dihydro-5H-pyrrolo[1,2-c]imidazol-1-yl)-2-[6-[4-[2-[2-[1-[4-[(2,6-dioxo-3-piperidyl)amino]-2,5-difluoro-phenyl]-4-hydroxy-4-piperidyl]acetyl]-2,6-diazaspiro[3.3]heptan-6-yl]phenyl]-4-fluoro-1-oxo-isoindolin-2-yl]-N-thiazol-2-yl-acetamide]	< 50
Cn1nc(N2CCC(=O)NC2=O)c2ccc(N3CCC(O)(CC(=O)N4CC5(C4)CN(c4ccc(-c6cc(F)c7c(c6)C(=O)N(C(C(=O)Nc6nccs6)c6ncn8c6CCC8)C7)cc4)C5)CC3)cc21 (stereo not shown) [Compound 109, 2-(6,7-dihydro-5H-pyrrolo[1,2-c]imidazol-1-yl)-2-(6-(4-(6-(2-(1-(3-(2,4-dioxotetrahydropyrimidin-1(2H)-yl)-1-methyl-1H-indazol-6-yl)-4-hydroxypiperidin-4-yl)acetyl)-2,6-diazaspiro[3.3]heptan-2-yl)phenyl)-4-fluoro-1-oxoisoindolin-2-yl)-N-(thiazol-2-yl)acetamide]	< 50
O=C1CC[C@H](Nc2ccc(N3CCC(O)(CC(=O)N4CCC5(CC4)CN(c4ccc(-c6cc(F)c7cn(C(C(=O)Nc8nccs8)c8ncn9c8CCC9)nc7c6)cc4)C5)CC3)c(F)c2)C(=O)N1 (stereo partly drawn) [Compound 79, 2-(6,7-dihydro-5H-pyrrolo[1,2-c]imidazol-1-yl)-2-(6-(4-(7-(2-(1-(4-(((S)-2,6-dioxopiperidin-3-yl)amino)-2-fluorophenyl)-4-hydroxypiperidin-4-yl)acetyl)-2,7-diazaspiro[3.5]nonan-2-yl)phenyl)-4-fluoro-2H-indazol-2-yl)-N-(thiazol-2-yl)acetamide]	< 50
O=C1CC[C@@H](Nc2ccc(N3CCC(O)(CC(=O)N4CCC(NC(=O)c5ccc(C#Cc6cc(F)c7c(c6)C(=O)N(C(C(=O)Nc6nccs6)c6ncn8c6C[C@@H](F)C8)C7)cn5)CC4)CC3)c(F)c2)C(=O)N1 (stereo partly drawn) [Compound 108, N-(1-(2-(1-(4-(((R)-2,6-dioxopiperidin-3-yl)amino)-2-fluorophenyl)-4-hydroxypiperidin-4-yl)acetyl)piperidin-4-yl)-5-((7-fluoro-2-(1-((R)-6-fluoro-6,7-dihydro-5H-pyrrolo[1,2-c]imidazol-1-yl)-2-oxo-2-(thiazol-2-ylamino)ethyl)-3-oxoisoindolin-5-yl)ethynyl)picolinamide]	< 50
O=C1CCN(c2ccc(N3CCC(O)(CC(=O)N4CC5(C4)CN(c4ccc(-c6cc(F)c7c(c6)C(=O)N(C(C(=O)Nc6nccs6)c6ncn8c6CCC8)C7)cc4)C5)CC3)c(C(F)(F)F)c2)C(=O)N1 (stereo not shown) [Compound 168, 2-(6,7-dihydro-5H-pyrrolo[1,2-c]imidazol-1-yl)-2-[6-[4-[2-[2-[1-[4-(2,4-dioxohexahydropyrimidin-1-yl)-2-(trifluoromethyl)phenyl]-4-hydroxy-4-piperidyl]acetyl]-2,6-diazaspiro[3.3]heptan-6-yl]phenyl]-4-fluoro-1-oxo-isoindolin-2-yl]-N-thiazol-2-yl-acetamide]	50 to 150
Cc1cc(C2CCN(C(=O)CN3CCC(c4ccc(NC5CCC(=O)NC5=O)cc4)CC3)CC2)ccc1-c1cc(F)c2c(c1)C(=O)N(C(C(=O)Nc1nccs1)c1ncn3c1CCC3)C2 (stereo not shown) [Compound 152, 2-(6,7-dihydro-5H-pyrrolo[1,2-c]imidazol-1-yl)-2-[6-[4-[1-[2-[4-[4-[(2,6-dioxo-3-piperidyl)amino]phenyl]-1-piperidyl]acetyl]-4-piperidyl]-2-methyl-phenyl]-4-fluoro-1-oxo-isoindolin-2-yl]-N-thiazol-2-yl-acetamide]	50 to 150
O=C1CCC(Nc2cc(F)c(N3CCC(O)(CC(=O)N4CC5(C4)CN(c4ccc(-c6cc(F)c7c(c6)C(=O)N(C(C(=O)Nc6nccs6)c6ncn8c6CCC8)C7)cc4)C5)CC3)c(F)c2)C(=O)N1 (single isomer, unassigned; isomer 1) [Compound 119, 2-(6,7-dihydro-5H-pyrrolo[1,2-c]imidazol-1-yl)-2-(6-(4-(6-(2-(1-(4-((2,6-dioxopiperidin-3-yl)amino)-2,6-difluorophenyl)-4-hydroxypiperidin-4-yl)acetyl)-2,6-diazaspiro[3.3]heptan-2-yl)phenyl)-4-fluoro-1-oxoisoindolin-2-yl)-N-(thiazol-2-yl)acetamide, isomer 1]	< 50
O=C1CCC(Nc2ccc(N3CCCC(O)(CC(=O)N4CC5(C4)CN(c4ccc(-c6cc(F)c7c(c6)C(=O)N(C(C(=O)Nc6nccs6)c6ncn8c6CCC8)C7)cc4)C5)CC3)c(F)c2)C(=O)N1 (single isomer, unassigned; isomer a1) [Compound 164, 2-(6,7-dihydro-5H-pyrrolo[1,2-c]imidazol-1-yl)-2-[6-[4-[2-[2-[1-[4-[[2,6-dioxo-3-piperidyl]amino]-2-fluoro-phenyl]-4-hydroxy-azepan-4-yl]acetyl]-2,6-diazaspiro[3.3]heptan-6-yl]phenyl]-4-fluoro-1-oxo-isoindolin-2-yl]-N-thiazol-2-yl-acetamide, isomer A1]	50 to 150
NC1(CC(=O)N2CC3(C2)CN(c2ccc(-c4cc(F)c5c(c4)C(=O)N(C(C(=O)Nc4nccs4)c4ncn6c4CCC6)C5)cc2)C3)CCN(c2ccc(NC3CCC(=O)NC3=O)cc2F)CC1 (stereo not shown) [Compound 162, 2-[6-[4-[2-[2-[4-amino-1-[4-[(2,6-dioxo-3-piperidyl)amino]-2-fluoro-phenyl]-4-piperidyl]acetyl]-2,6-diazaspiro[3.3]heptan-6-yl]phenyl]-4-fluoro-1-oxo-isoindolin-2-yl]-2-(6,7-dihydro-5H-pyrrolo[1,2-c]imidazol-1-yl)-N-thiazol-2-yl-acetamide]	< 50
O=C1CCC(Nc2ccc(C3CCN(C(=O)CC4CCN(c5ccc(-c6cc(F)c7c(c6)C(=O)N(C(C(=O)Nc6nccs6)c6ncn8c6CCC8)C7)cc5)CC4)CC3)c(F)c2)C(=O)N1 (stereo not shown) [Compound 86, 2-(6,7-dihydro-5H-pyrrolo[1,2-c]imidazol-1-yl)-2-[6-[4-[4-[2-[4-[4-[(2,6-dioxo-3-piperidyl)amino]-2-fluoro-phenyl]-1-piperidyl]-2-oxo-ethyl]-1-piperidyl]phenyl]-4-fluoro-1-oxo-isoindolin-2-yl]-N-thiazol-2-yl-acetamide]	50 to 150
Cn1nc(N2CCC(=O)NC2=O)c2ccc([C@H]3CCN(C(=O)CN4CC5(CCN(c6ccc(-c7cc(F)c8c(c7)C(=O)N(C(C(=O)Nc7nccs7)c7ncn9c7CCC9)C8)cc6)CC5)C4)CC3(F)F)cc21 (stereo partly drawn) [Compound 143, 2-(6,7-dihydro-5H-pyrrolo[1,2-c]imidazol-1-yl)-2-[6-[4-[2-[2-[(4R)-4-[3-(2,4-dioxohexahydropyrimidin-1-yl)-1-methyl-indazol-6-yl]-3,3-difluoro-1-piperidyl]-2-oxo-ethyl]-2,7-diazaspiro[3.5]nonan-7-yl]phenyl]-4-fluoro-1-oxo-isoindolin-2-yl]-N-thiazol-2-yl-acetamide]	50 to 150
